Test system: umbilical cord blood monocytes (MNCs) / EPC colonies
Test: Colony formation, proliferative ability and cell cycle in xeno-free culture
Type: cell-based, human
Experimental: FIG. […] Specifically, the isolation and culture of […] (EPC) is performed by density difference centrifugation using ficoll after receiving umbilical cord blood (IRB approval number 05-2017-053, 50 cc or more) of mothers who visited the Department of Obstetrics and Gynecology, Pusan National University, Yangsan to obtain monocytes (MNCs). After red blood cell lysis, the cells were seeded (7>10^6 cells/well) in a 6-well plate coated with fibronectin (1 μg/cm^2), and were cultured for 5 days in an atmosphere of 5% CO2 at 37° C. under conditions of each medium ([…] endothelial cell differentiation (EGM2 media)). […] After culture, the medium was exchanged every day, and the EPC colony attachment was identified and subcultured when 70% or more thereof is under a confluent state. According to the type of culture medium, the cells obtained by culturing with the conventional vascular endothelial cell differentiation medium […]
[…] Example 11 were separated into single cells, and proliferative ability, cell cycle change, and colony formation ability were analyzed in the same manner as in Example 6. For the control group of this example, cells cultured by the conventional culture method (L-EPC) and cells cultured in a medium containing each single component in a xeno-free medium [a group treated with fucoidan (Fu, 0.1 μg/ml), a group treated with a tauroursodeoxycholic acid (TD, 25 μM), a group treated with oleuropein (OLP, 0.5 μM), and a group treated with a vascular endothelial growth factor (VEGF, 100 ng/ml)]were used.

vascular endothelial growth factor
colony formation ability (EPC colonies) (xeno-free medium): EPC colonies were identified
division time of the cells (xeno-free medium): prolonged
expression of VE-cadherin (xeno-free medium with single component): low
